Target: A2aR (hA2aR) (Homo sapiens, UniProt P29274)
Assay: flow cytometry, fluorescent agonist equilibrium binding to HEK293-A2aR cells
Assay type: cell-based

Chain of A2aR (hA2aR) (P29274 whole entry): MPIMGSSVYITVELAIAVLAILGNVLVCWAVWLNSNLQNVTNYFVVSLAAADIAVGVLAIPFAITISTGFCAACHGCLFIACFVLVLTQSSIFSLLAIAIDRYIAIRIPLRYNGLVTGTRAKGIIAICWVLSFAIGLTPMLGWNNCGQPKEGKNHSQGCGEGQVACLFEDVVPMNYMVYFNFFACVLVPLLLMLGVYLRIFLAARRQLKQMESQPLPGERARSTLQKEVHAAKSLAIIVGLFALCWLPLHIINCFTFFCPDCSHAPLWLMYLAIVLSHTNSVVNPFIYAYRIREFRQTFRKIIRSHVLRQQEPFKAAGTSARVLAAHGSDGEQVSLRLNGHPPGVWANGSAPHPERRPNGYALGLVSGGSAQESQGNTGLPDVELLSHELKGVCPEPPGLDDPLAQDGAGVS

CCNC(=O)[C@H]1O[C@@H](n2cnc3c(N)nc(NCCc4ccc(CCC(=O)NCCNC(=S)Nc5ccc6c(c5)C(=O)OC65c6ccc(O)cc6Oc6cc(O)ccc65)cc4)nc32)[C@H](O)[C@@H]1O [FITC-APEC]
equilibrium ligand binding: equilibrium ligand binding of the fluorescent agonist APEC-FITC was unchanged following cholesterol depletion
